According to the NIST ThermoML archive (doi:10.1021/je0603574):
Where “and” joins values, the source holds several entries; their conditions need not be identical. Equal entries are not always repeated. ± gives the expanded uncertainty stated by the source.

Legend:
[1] = 323.15 K; Liquid; Closed cell (Static) method
[2] = excess molar enthalpy (molar enthalpy of mixing); xn = mol fraction of the nth substance listed; details: 323.15 K, Liquid, Flow calorimetry

CCCCO [butan-1-ol]
Details | vapor or sublimation pressure [kPa]
[1] | 4.61 ± 0.05

COC [dimethyl ether]
Details | vapor or sublimation pressure
[1] | 1143 ± 5.1 kPa and 1142.9 ± 5.1 kPa and 1143.2 ± 5.1 kPa

COC [dimethyl ether] + CCCCO
[2]
Details | excess molar enthalpy [kJ/mol]
x1 = 0.0655 | 0.182 ± 0.0042
x1 = 0.129 | 0.337 ± 0.0074
x1 = 0.1904 | 0.476 ± 0.01
x1 = 0.2499 | 0.59 ± 0.013
x1 = 0.3076 | 0.675 ± 0.015
x1 = 0.3635 | 0.749 ± 0.016
x1 = 0.4178 | 0.8 ± 0.017
x1 = 0.4705 | 0.832 ± 0.018
x1 = 0.5216 | 0.85 ± 0.018
x1 = 0.5713 | 0.852 ± 0.018
x1 = 0.6196 | 0.832 ± 0.018
x1 = 0.6666 | 0.802 ± 0.017
x1 = 0.7122 | 0.76 ± 0.016
x1 = 0.7567 | 0.7 ± 0.015
x1 = 0.7999 | 0.626 ± 0.013
x1 = 0.842 | 0.538 ± 0.012
x1 = 0.8831 | 0.431 ± 0.0094
x1 = 0.923 | 0.305 ± 0.0068
x1 = 0.962 | 0.162 ± 0.0038

COC [dimethyl ether] + CCCO
[2]
Details | excess molar enthalpy [kJ/mol]
x1 = 0.0541 | 0.144 ± 0.0034
x1 = 0.1078 | 0.274 ± 0.0061
x1 = 0.161 | 0.392 ± 0.0086
x1 = 0.2138 | 0.495 ± 0.011
x1 = 0.2661 | 0.583 ± 0.013
x1 = 0.3179 | 0.661 ± 0.014
x1 = 0.3693 | 0.722 ± 0.016
x1 = 0.4203 | 0.769 ± 0.017
x1 = 0.4708 | 0.804 ± 0.017
x1 = 0.521 | 0.826 ± 0.018
x1 = 0.5707 | 0.824 ± 0.018
x1 = 0.62 | 0.815 ± 0.018
x1 = 0.6688 | 0.789 ± 0.017
x1 = 0.7173 | 0.745 ± 0.016
x1 = 0.7654 | 0.685 ± 0.015
x1 = 0.8131 | 0.604 ± 0.013
x1 = 0.8604 | 0.496 ± 0.011
x1 = 0.9073 | 0.362 ± 0.008
x1 = 0.9538 | 0.195 ± 0.0045

COC [dimethyl ether] + CCO
[2]
Details | excess molar enthalpy [kJ/mol]
x1 = 0.0428 | 0.0874 ± 0.0022
x1 = 0.0862 | 0.177 ± 0.0041
x1 = 0.1303 | 0.261 ± 0.0058
x1 = 0.175 | 0.341 ± 0.0075
x1 = 0.2205 | 0.416 ± 0.0091
x1 = 0.2667 | 0.486 ± 0.011
x1 = 0.3137 | 0.549 ± 0.012
x1 = 0.3614 | 0.606 ± 0.013
x1 = 0.4098 | 0.653 ± 0.014
x1 = 0.4591 | 0.693 ± 0.015
x1 = 0.5092 | 0.716 ± 0.015
x1 = 0.5601 | 0.733 ± 0.016
x1 = 0.6118 | 0.739 ± 0.016
x1 = 0.6645 | 0.725 ± 0.016
x1 = 0.718 | 0.693 ± 0.015
x1 = 0.7725 | 0.639 ± 0.014
x1 = 0.8279 | 0.551 ± 0.012
x1 = 0.8842 | 0.426 ± 0.0093
x1 = 0.9416 | 0.244 ± 0.0055

COC [dimethyl ether] + CO
[2]
Details | excess molar enthalpy [kJ/mol]
x1 = 0.03 | 0.0244 ± 0.001
x1 = 0.0614 | 0.0534 ± 0.0015
x1 = 0.0941 | 0.0848 ± 0.0022
x1 = 0.1282 | 0.121 ± 0.0029
x1 = 0.164 | 0.157 ± 0.0036
x1 = 0.2014 | 0.195 ± 0.0044
x1 = 0.2406 | 0.236 ± 0.0053
x1 = 0.2818 | 0.278 ± 0.0062
x1 = 0.325 | 0.32 ± 0.0071
x1 = 0.3704 | 0.361 ± 0.0079
x1 = 0.4183 | 0.397 ± 0.0087
x1 = 0.4688 | 0.434 ± 0.0095
x1 = 0.5222 | 0.467 ± 0.01
x1 = 0.5786 | 0.491 ± 0.011
x1 = 0.6384 | 0.504 ± 0.011
x1 = 0.7018 | 0.502 ± 0.011
x1 = 0.7693 | 0.471 ± 0.01
x1 = 0.8412 | 0.398 ± 0.0087
x1 = 0.9179 | 0.253 ± 0.0057

CCO [ethanol]
Details | vapor or sublimation pressure [kPa]
[1] | 29.37 ± 0.14

CO [methanol]
Details | vapor or sublimation pressure [kPa]
[1] | 55.3 ± 0.25

CCCO [propan-1-ol]
Details | vapor or sublimation pressure [kPa]
[1] | 12.32 ± 0.07
